Values quoted from earlier work in US20250319118A1, “Prophylaxis and Treatment of Degraded Cartilage” (PhrixionLS, LLC, priority 2022, published 2025).

How the values were obtained:
osteoarthritis [1] = settings: viscosupplementation
osteoarthritis [2] = settings: for Limitations: clinical outcomes / OA symptoms: clinical trials, osteoarthritis

For hyaluronic acid [HA], which “Benefit compared to placebo” value (osteoarthritis [1]) is on record?
Its value is “no significant benefit compared to placebo”.

With `C[C@H]1CN(C(=O)CC[C@@]2(C3CC3)NC(=O)NC2=O)CCN1c1cc(F)cc(F)c1` [GLPG1972, reference compound] as the molecule, how does the Efficacy versus placebo (osteoarthritis [2]; Phase-2 study) read?
Its Efficacy versus placebo is “No significant difference versus”.

With `C[S+](CC[C@H](N)C(=O)[O-])C[C@H]1O[C@@H](n2cnc3c(N)ncnc32)[C@H](O)[C@@H]1O` (some centres unmarked) [S-adenosyl-methionine (SAMe), S-adenosyl-methionine] as the molecule, how does the “Limitations: clinical outcomes / OA symptoms” value (osteoarthritis [2]; literature summary) read?
The value was “Shown to improve OA symptoms,”.

With Bromelain as the molecule, how does the “Limitations: clinical outcomes / OA symptoms” value (osteoarthritis [2]; literature summary) read?
Its value is “Mixed results in clinical trials,”.

B1: Sprifermin: Drug (Trial), investigated as disease-modifier for cartilage damage (protein, UniProt O76093 28-207, looked up)
Fibroblast growth factor 18: EENVDFRIHVENQTRARDDVSRKQLRLYQLYSRTSGKHIQVLGRRISARGEDGDKYAQLLVETDTFGSQVRIKGKETEFYLCMNRKGKLVGKPDGTSKECVFIEKVLENNYTALMSAKYSGWYVGFTKKGRPRKGPKTRENQQDVHFMKRYPKGQPELQKPFKYTTVTKRSRRIRPTHPA
For B1, which “Limitations: effect on cartilage (regeneration / protection)” value (osteoarthritis [2]; clinical and preclinical data, literature summary) is on record?
Its value is “Demonstrated positive effects”.
